Data on 2 molecules can be found in ChEMBL document CHEMBL1201862, “PubChem BioAssay data set” (2004).

Structures are written as SMILES. The source made the active and inactive calls.

What all share (format): functional
Test [1] addresses Mitogen-activated protein kinase 9 (Homo sapiens, UniProt P45984).
The target of test [2] is cAMP-dependent protein kinase catalytic subunit alpha (Homo sapiens, UniProt P17612).
Test [3] concerns the target Leucine-rich repeat serine/threonine-protein kinase 2 (Homo sapiens, UniProt Q5S007).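 Further: value from a broad kinome-wide panel profiling study in which LRRK2 was one of the kinases tested.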
Test [4] concerns the target Macrophage colony-stimulating factor 1 receptor (Homo sapiens, UniProt P07333).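 Further: value comes from the Navigating the Kinome screening panel, CSF1R member.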
In test [5] the target is Dual specificity tyrosine-phosphorylation-regulated kinase 1B (Homo sapiens, UniProt Q9Y463). Briefly: Navigating the Kinome. Panel member name: DYRK1B.
Chain of Dual specificity tyrosine-phosphorylation-regulated kinase 1B (Q9Y463 whole entry): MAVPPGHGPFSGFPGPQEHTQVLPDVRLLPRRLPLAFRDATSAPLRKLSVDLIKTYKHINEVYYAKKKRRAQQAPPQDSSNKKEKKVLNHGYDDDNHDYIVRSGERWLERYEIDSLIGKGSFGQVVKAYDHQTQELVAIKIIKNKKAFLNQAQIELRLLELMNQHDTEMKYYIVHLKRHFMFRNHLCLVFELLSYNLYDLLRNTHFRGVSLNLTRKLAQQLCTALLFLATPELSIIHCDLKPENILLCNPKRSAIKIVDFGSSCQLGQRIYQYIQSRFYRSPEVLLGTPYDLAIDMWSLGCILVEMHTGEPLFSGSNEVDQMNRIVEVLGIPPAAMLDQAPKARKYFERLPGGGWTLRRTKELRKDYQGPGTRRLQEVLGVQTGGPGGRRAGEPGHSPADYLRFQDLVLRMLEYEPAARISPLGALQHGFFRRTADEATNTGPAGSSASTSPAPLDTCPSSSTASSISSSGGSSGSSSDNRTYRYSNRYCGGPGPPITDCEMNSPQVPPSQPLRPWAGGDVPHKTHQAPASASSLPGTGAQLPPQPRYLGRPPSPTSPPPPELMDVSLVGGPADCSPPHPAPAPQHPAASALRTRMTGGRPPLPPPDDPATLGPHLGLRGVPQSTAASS
For test [6], the target named is Hepatocyte growth factor receptor (Homo sapiens, UniProt P08581).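 Further: kinase panel profiling across the kinome, with MET as the panel member.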
Test [7] concerns the target Tyrosine-protein kinase receptor TYRO3 (Homo sapiens, UniProt Q06418).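 Further: TYRO3 value obtained as one member of a kinome-wide profiling panel.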
In test [8] the target is Focal adhesion kinase 1 (Homo sapiens, UniProt Q05397).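 Further: measured as one member of a kinome panel.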
Test [9] concerns the target Mitogen-activated protein kinase 14 (Homo sapiens, UniProt Q16539).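 Further: part of a kinome-wide panel, MAPK14 entry.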
For test [10], the target named is Aurora kinase A (Homo sapiens, UniProt O14965).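 Further: value from the Navigating the Kinome kinase panel profiling, panel entry STK6.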
Chain of Aurora kinase A (O14965 whole entry): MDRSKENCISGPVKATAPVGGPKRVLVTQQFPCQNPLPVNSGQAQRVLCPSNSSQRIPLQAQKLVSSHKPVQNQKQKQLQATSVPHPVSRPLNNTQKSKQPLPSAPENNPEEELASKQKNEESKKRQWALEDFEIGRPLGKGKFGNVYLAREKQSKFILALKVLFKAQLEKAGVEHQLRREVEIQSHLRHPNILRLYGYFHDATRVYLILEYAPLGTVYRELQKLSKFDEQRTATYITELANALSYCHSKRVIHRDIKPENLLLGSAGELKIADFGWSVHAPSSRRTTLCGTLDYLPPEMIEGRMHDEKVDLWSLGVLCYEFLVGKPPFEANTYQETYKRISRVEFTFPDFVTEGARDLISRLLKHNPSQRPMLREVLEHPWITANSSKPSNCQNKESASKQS
Test [11] has as its target Tyrosine-protein kinase Fyn (Homo sapiens, UniProt P06241).
Test [12] deals with Ribosomal protein S6 kinase alpha-3 (Homo sapiens, UniProt P51812).
The target of test [13] is Tyrosine-protein kinase Lck (Homo sapiens, UniProt P06239).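 Further: lck was assayed as one member of a kinase panel.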
Test [14] deals with Mitogen-activated protein kinase kinase kinase kinase 2 (Homo sapiens, UniProt Q12851).
In test [15] the target is Death-associated protein kinase 3 (Homo sapiens, UniProt O43293).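 Further: measured as one member of a kinome-wide profiling panel.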
For test [16], the target named is Vascular endothelial growth factor receptor 1 (Homo sapiens, UniProt P17948).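 Further: measured within a kinome-wide profiling panel, FLT1 as the panel member.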
In test [17] the target is BDNF/NT-3 growth factors receptor (Homo sapiens, UniProt Q16620).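 Further: NTRK2 measured as one member of a broad kinome-wide kinase profiling panel.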
Test [18] deals with Inhibitor of nuclear factor kappa-B kinase subunit epsilon (Homo sapiens, UniProt Q14164). Briefly: Navigating the Kinome. Panel member name: IKBKE.
Chain of Inhibitor of nuclear factor kappa-B kinase subunit epsilon (Q14164 whole entry): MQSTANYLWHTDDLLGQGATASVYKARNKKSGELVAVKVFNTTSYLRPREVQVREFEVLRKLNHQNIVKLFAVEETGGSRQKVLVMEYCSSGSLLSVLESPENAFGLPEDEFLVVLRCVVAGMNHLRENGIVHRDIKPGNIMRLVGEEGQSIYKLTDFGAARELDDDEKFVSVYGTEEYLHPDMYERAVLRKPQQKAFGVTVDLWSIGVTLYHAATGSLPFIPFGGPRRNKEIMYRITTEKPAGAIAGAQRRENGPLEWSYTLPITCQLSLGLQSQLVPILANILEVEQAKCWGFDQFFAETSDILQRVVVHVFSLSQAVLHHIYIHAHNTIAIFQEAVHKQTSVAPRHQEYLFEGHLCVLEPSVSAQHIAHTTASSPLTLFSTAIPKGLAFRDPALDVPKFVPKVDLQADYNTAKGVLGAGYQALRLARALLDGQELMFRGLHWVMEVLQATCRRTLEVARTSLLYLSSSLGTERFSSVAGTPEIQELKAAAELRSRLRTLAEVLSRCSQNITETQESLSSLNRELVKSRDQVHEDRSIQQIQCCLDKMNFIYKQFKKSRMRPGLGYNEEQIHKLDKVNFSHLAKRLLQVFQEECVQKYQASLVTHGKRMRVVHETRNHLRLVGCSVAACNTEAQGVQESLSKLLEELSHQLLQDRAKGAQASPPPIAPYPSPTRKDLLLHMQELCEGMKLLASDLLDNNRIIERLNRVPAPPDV
For test [19], the target named is Proto-oncogene tyrosine-protein kinase receptor Ret (Homo sapiens, UniProt P07949).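 Further: measured within a kinome-wide profiling panel, RET as the panel member.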
Test [20] deals with Cyclin-dependent kinase 9 (Homo sapiens, UniProt P50750).
Chain of Cyclin-dependent kinase 9 (P50750 whole entry): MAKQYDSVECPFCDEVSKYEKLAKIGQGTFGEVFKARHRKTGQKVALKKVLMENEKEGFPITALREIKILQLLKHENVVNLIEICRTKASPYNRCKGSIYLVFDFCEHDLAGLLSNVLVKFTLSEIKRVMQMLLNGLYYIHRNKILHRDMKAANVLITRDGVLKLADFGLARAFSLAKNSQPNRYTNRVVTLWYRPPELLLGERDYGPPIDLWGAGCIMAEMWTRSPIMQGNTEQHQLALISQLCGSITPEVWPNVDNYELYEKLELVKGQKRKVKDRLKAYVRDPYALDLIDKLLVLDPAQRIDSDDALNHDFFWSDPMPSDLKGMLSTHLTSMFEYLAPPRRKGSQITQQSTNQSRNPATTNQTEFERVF
Test [21] concerns the target Serine/threonine-protein kinase TBK1 (Homo sapiens, UniProt Q9UHD2). Briefly: Navigating the Kinome. Panel member name: TBK1.
The target of test [22] is ALK tyrosine kinase receptor (Homo sapiens, UniProt Q9UM73).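 Further: ALK tested as one member of a kinase panel screen.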
Test [23] addresses LIM domain kinase 1 (Homo sapiens, UniProt P53667). Briefly: Navigating the Kinome. Panel member name: LIMK1.
Test [24] has as its target Serine/threonine-protein kinase Chk1 (Homo sapiens, UniProt O14757).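 Further: measured as one member of a kinome-wide kinase profiling panel.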
Test [25] concerns the target Aurora kinase B (Homo sapiens, UniProt Q96GD4).
For test [26], the target named is Tyrosine-protein kinase ABL1 (Homo sapiens, UniProt P00519).
Test [27] has as its target Activin receptor type-1 (Homo sapiens, UniProt Q04771). Briefly: Navigating the Kinome. Panel member name: ACVR1.

A word on the Ki: it is a dissociation constant, usually derived from enzyme kinetics or from competition with a known ligand.

Chain of Mitogen-activated protein kinase 14 (Q16539 whole entry): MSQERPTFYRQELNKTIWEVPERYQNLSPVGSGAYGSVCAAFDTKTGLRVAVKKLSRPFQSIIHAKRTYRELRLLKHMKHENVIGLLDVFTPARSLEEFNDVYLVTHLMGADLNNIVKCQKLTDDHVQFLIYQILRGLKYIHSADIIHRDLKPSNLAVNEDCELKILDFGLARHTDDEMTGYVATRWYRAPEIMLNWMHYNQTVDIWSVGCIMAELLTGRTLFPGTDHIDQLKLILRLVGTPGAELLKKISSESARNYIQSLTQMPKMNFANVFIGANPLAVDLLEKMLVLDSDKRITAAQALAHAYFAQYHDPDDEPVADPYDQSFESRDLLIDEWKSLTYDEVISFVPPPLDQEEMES
Chain of Leucine-rich repeat serine/threonine-protein kinase 2 (Q5S007 whole entry): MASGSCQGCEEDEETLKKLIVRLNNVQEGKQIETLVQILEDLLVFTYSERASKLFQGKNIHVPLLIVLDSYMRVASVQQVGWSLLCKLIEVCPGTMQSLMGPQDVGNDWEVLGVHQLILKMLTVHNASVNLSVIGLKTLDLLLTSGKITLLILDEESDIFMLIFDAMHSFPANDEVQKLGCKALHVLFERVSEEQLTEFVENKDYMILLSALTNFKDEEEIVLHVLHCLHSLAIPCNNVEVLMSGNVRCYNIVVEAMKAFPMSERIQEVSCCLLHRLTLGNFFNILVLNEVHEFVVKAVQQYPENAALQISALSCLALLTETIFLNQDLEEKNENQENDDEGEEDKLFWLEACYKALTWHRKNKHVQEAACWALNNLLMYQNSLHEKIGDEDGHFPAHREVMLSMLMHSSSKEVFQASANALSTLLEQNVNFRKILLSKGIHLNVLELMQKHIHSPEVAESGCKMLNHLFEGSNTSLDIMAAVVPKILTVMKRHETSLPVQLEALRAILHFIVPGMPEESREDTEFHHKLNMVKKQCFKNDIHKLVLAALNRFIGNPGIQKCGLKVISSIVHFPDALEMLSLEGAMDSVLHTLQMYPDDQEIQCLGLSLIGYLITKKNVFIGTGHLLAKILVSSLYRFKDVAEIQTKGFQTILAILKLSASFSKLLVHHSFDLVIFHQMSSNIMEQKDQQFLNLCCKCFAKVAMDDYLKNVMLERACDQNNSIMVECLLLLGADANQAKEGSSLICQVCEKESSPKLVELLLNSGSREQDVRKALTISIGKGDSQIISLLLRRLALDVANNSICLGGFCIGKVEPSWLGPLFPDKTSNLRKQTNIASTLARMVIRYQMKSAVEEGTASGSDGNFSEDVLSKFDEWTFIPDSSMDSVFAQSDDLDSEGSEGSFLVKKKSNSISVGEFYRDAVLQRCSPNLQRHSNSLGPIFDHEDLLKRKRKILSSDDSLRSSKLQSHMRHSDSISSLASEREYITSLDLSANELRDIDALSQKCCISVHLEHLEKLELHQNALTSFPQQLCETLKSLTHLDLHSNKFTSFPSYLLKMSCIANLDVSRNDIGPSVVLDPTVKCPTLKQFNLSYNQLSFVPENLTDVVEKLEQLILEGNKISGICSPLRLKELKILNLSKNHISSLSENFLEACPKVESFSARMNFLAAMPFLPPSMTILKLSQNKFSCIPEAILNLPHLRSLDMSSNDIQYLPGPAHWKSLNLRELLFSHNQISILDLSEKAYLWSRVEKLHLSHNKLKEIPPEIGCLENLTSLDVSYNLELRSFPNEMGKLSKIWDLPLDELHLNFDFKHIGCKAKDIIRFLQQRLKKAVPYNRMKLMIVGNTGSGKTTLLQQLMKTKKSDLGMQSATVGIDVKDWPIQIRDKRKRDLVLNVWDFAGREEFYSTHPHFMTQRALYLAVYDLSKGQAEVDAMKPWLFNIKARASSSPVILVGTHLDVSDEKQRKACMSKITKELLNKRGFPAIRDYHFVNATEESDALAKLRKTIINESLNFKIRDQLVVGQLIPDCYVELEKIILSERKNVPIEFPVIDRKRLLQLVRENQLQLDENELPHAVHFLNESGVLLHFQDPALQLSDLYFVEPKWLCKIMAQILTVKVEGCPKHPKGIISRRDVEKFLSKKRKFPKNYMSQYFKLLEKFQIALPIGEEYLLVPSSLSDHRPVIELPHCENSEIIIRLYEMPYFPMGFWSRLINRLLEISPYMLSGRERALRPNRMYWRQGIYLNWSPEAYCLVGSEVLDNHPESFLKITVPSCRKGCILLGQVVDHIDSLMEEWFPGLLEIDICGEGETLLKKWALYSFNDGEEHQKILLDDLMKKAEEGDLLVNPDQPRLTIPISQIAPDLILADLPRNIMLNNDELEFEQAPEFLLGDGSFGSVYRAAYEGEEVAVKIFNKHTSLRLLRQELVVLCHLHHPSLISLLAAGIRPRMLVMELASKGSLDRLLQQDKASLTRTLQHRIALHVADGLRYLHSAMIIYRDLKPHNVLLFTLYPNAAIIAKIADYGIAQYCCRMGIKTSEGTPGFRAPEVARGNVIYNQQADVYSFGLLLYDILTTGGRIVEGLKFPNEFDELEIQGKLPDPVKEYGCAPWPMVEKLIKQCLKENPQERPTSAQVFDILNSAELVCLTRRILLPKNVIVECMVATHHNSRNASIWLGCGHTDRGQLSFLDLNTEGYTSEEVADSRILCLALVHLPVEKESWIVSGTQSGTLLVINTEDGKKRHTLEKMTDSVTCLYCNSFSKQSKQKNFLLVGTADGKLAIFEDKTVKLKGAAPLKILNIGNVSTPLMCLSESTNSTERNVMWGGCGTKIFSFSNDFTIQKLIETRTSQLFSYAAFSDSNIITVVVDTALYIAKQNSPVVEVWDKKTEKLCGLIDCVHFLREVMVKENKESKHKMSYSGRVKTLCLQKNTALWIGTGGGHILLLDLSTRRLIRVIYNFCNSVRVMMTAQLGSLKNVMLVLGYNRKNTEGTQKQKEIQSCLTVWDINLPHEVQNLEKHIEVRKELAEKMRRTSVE

As for `CCCOc1cccc(C(C)NC(=O)c2ccc(-c3ccncc3F)cc2)c1` (stereo not given), the Ki was > 3.98 µM (inactive) in [1]; 1 µM (active) in test [2]; > 2.51 µM (inactive) in test [3]; > 2.51 µM (inactive) in test [4]; > 2.51 µM (inactive) in [5]; > 2.51 µM (inactive) in test [6]. Moreover, the Ki was > 3.16 µM (inactive) in test [7]; > 6.31 µM (inactive) in [8]; > 3.98 µM (inactive) in [9]; > 1.58 µM (inactive) in [10]; > 6.31 µM (inactive) in test [11]; > 3.98 µM (inactive) in [12]. In addition, the Ki in [13] was > 6.31 µM (inactive); in test [14], > 2.51 µM (inactive); in [15], > 5.01 µM (inactive); in [16] it was > 3.98 µM (inactive); in test [17], > 3.98 µM (inactive); in test [18], > 3.16 µM (inactive). For the same molecule, the Ki in test [19] is > 3.16 µM (inactive); in [20], > 1.58 µM (inactive); in [21] it was > 3.16 µM (inactive); in test [22] it was > 6.31 µM (inactive).
`COc1cccc(C(C)NC(=O)c2cnc(-c3ccncc3)nc2)c1` (stereo not given): the Ki in test [1] is > 3.98 µM (inactive); in test [2], 0.126 µM (active); in [3], > 2.51 µM (inactive); in test [4] it was > 2.51 µM (inactive); in [5], > 2.51 µM (inactive); in test [23] it was > 3.16 µM (inactive). The Ki in [7] is > 3.16 µM (inactive); in test [9], > 3.98 µM (inactive); in test [24], > 3.16 µM (inactive); in test [10], > 1.58 µM (inactive); in test [11], > 6.31 µM (inactive); in test [25], > 3.98 µM (inactive). Further, the Ki in test [26] is > 3.98 µM (inactive); in test [14], > 2.51 µM (inactive); in test [27], > 3.98 µM (inactive); in test [15], > 5.01 µM (inactive); in [16], > 3.98 µM (inactive); in [17], > 3.98 µM (inactive). The Ki was > 3.16 µM (inactive) in [18]; > 3.16 µM (inactive) in test [19]; > 1.58 µM (inactive) in [20]; > 3.16 µM (inactive) in test [21]; > 6.31 µM (inactive) in [22].
